Data taken from patent US9714213B2, “4-aminomethylbenzoic acid derivative” (TOA EIYO LTD., priority 2013, dated 2017).
Like-named read-outs stand apart in the source and are kept apart here.

Columns and labels:
human sGC = target: T1, human sGC (Homo sapiens, UniProt Q02153); assay: Maximum effect of sGC activation (intracellular Ca2+, Fura2-AM) in CHO-K1 cells stably expressing human sGC and mouse CNGA2; assay type: cell-based; details: increase rate of sGC activity vs DMSO control, test compound 10 μmol/L
T1 construct: expressed in transfected cells; host or cells: CHO-K1 (Chinese hamster ovary) cells
T1 sequence (Q02153 1-619): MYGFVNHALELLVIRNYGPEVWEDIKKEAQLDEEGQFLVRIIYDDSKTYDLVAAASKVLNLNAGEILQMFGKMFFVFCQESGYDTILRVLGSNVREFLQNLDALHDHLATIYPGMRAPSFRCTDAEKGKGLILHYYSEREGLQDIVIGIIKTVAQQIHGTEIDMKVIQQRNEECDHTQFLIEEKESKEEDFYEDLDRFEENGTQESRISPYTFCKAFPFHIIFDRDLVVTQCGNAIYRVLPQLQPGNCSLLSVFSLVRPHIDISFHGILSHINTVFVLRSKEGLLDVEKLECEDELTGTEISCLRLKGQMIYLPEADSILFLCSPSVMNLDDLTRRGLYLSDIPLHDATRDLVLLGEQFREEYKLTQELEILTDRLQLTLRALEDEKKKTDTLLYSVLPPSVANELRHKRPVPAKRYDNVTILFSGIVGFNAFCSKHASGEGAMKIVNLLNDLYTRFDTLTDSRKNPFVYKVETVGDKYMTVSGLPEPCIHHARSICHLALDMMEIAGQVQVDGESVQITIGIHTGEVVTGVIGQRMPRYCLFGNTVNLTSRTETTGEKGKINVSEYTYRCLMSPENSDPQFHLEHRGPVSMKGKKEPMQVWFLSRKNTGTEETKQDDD
T1 sequence (Q02108 1-690 partner): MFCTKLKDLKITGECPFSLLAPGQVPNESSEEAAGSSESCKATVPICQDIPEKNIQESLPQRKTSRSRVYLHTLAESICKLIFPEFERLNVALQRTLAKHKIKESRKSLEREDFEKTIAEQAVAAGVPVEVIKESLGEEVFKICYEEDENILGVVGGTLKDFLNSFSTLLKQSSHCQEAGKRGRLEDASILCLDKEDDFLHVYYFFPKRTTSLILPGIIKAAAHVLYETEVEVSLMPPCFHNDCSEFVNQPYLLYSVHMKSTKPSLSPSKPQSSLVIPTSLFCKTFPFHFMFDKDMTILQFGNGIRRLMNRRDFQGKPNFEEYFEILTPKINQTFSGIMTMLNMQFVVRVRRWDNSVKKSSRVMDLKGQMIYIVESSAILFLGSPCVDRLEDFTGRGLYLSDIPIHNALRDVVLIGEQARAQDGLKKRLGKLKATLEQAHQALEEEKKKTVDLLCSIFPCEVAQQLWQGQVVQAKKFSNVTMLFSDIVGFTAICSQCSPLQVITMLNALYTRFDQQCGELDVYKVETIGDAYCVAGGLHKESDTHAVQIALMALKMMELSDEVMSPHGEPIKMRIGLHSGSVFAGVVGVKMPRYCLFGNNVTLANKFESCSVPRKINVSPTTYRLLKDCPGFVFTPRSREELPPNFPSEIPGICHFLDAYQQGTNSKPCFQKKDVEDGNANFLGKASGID
Description: For the assay, chinese hamster ovary cells (CHO-K1 cells) stably expressing both α and β subunits of human sGC and mouse cyclic nucleotide-gated channel (CNGA2) were used.
The CHO-K1 cells stably expressing human sGC and mouse CNGA2 was cultured at 37° C. on F-12 medium containing 10% (v/v) fetal bovine serum (FBS), penicillin (100 U/mL), streptomycin (100 μg/mL), G418 (250 μg/mL) and Zeocin (250 μg/mL). The cells were suspended in a culture medium, seeded on a 96 well plate, and then cultured at 37° C. for 24 hours. The cells were washed with Assay buffer 1 (140 mmol/L sodium chloride, 5 mmol/L potassium chloride, 0.5 mmol/L magnesium chloride, 0.01 mmol/L calcium chloride, 10 mmol/L glucose, 0.4 mmol/L magnesium sulfate, 10 mmol/L 4-(2-hydroxyethyl)piperazin-1-ylethanesulfonic acid and 125 μmol/L sulfinpyrazone, pH 7.4), and then added a solution containing Fura2-AM, a fluorescent Ca^2+ indicator, in Assay buffer 1 at […] concentration thereto as an indicator solution, and cultured at 37° C. for 60 minutes. The culture medium was removed, and the cells were washed with Assay buffer 1, and then added a solution containing the test compound thereto, and cultured at room temperature for 10 minutes. A plate was placed onto a fluorometer (FlexStation II, Molecular Devices), and the intracellular calcium concentration was determined as the ratio of fluorescent intensity, obtained from measurement using 340 nm and 380 nm as excitation wavelength and 510 nm as detection wavelength.
The solution of the test compound was prepared by dissolving each test compound in DMSO at 10 mmol/L, and then diluting the solution for the test concentration at 10 μmol/L with Assay buffer (140 mmol/L sodium chloride, 5 mmol/L potassium chloride, 0.5 mmol/L magnesium chloride, 1 mmol/L calcium chloride, 10 mmol/L glucose, 0.4 mmol/L magnesium sulfate, 10 mmol/L 4-(2-hydroxyethyl)piperazin-1-ylethanesulfonic acid, […] sulfinpyrazone, 100 μmol/L isobutyl methyl xanthine, and 10 μmol/L 1H-[1,2,4]-oxadiazol[4,3-a]quinoxaline-1-one (hereinafter, ODQ), pH 7.4). The evaluation in the absence of ODQ was performed similarly, except that ODQ was not added to Assay buffer 2. As a control solution, a DMSO solution was used instead of the test compound solution.
The activity of the test compound defined as the increase rate of the sGC activity (%) at the time of adding the solution of the test compound with respect to the sGC activity at the time of adding the control solution, was calculated by dividing the fluorescent intensity ratio at the time of adding the test compound by the fluorescent intensity ratio of the control solution, and subtracting the sGC activity at the time of adding the control solution (100%).
If sGC is activated in this assay, intracellular cGMP concentration increases and accordingly intracellular Ca^2+ concentration is increased by opening of CNGA2. Accordingly, sGC activation can be measured as the change of Ca^2+ concentration in the cell. […] Accordingly, it is possible to evaluate maximum sGC activation effect including heme-dependent activation in the absence of ODQ, and also possible to evaluate heme independent sGC activation effect in the presence of ODQ.

rat ventral aorta = assay: Blood vessel relaxation activity, phenylephrine-contracted rat ventral aorta ring specimen; details: relaxation of 1 μmol/L phenylephrine contraction; EC50 without ODQ / EC50 with 10 μmol/L ODQ
Description: A representative compound of the present invention was assayed for blood vessel relaxation activity according to the Test Example described below. In the assay, a rat (male, SD) was phlebotomized from the upper part of the heart under pentobarbital (30 mg/kg) anesthesia, and the ventral aorta was extracted. The connective tissue adhering around the blood vessel in the ventral aorta was removed in an ice-cooled Krebs-Henseleit solution (KH solution) (118 mmol/L sodium chloride, 4.7 mmol/L potassium chloride, 1.2 mmol/L magnesium sulfate, 1.2 mmol/L potassium dihydrogenphosphate, 25 mmol/L sodium hydrogen carbonate, 2.5 mmol/L calcium chloride and 10 mmol/L glucose, pH 7.4). Then, a ring specimen of 2 mm length was prepared, and fixed in 5 mL organ bath filled with the KH solution. The KH solution was maintained at 37° C., and a mixed gas of 95% O2 and 5% CO2 was ventilated. The specimen was stabilized with 1 g of the resting tension for 1 hour. In the meantime, the KH solution was exchanged twice. The tension of the specimen was recorded with a multichannel recorder through a pickup and an amplifier. After stabilization of the specimen, contraction was induced with 1 μmol/L phenylephrine (Phe), and cumulative administration of each compound (0.001, 0.01, 0.03, 0.1, 0.3, 1, 3, 10, 30, 100, 1000, 10000 nmol/L) was carried out. In the case of evaluation at the time of containing ODQ, 10 μmol/L ODQ was added 10 minutes before administration of Phe, and similar evaluation was performed.
EC50 value was calculated by Four-parameter Logistic Model with Assay Explorer (Accelrys, Inc.). Meanwhile, the solution of the test compound was prepared by dissolving the compound in DMSO to prepare solutions having the concentration of each test compound 1000 times higher than the final concentration.

[1] = 10 μmol/L ODQ present, read-out: Emax (%) ODQ+ (Heme-independent)
[2] = absence of ODQ, read-out: Emax (%) ODQ− (Heme-dependent)

| SMILES | Emax at 10 µM (human sGC; [1]) [%] | Emax at 10 µM (human sGC; [2]) [%] | EC50 Ratio (ODQ−/ODQ+) (rat ventral aorta) |
| --- | --- | --- | --- |
| O=C(O)CCCCN(Cc1ccc(C(=O)O)cc1)CC(OCc1ccc(CCc2ccccc2)cc1)c1ccc(Cl)s1 (stereo not drawn) [Example 27, 4-{[N-(4-Carboxybutyl)-N-[2-[4-(2-phenylethyl)benzyloxy]-2-(5-chloro-2-thienyl)ethyl]amino]methyl}benzoic acid] | 118 | 187 | 2.66 |
| O=C(O)CCCCN(Cc1ccc(C(=O)O)cc1)CC(OCc1ccc(CCc2ccccc2)s1)c1ccccc1 (stereo not drawn) [Example 25, 4-{[N-(4-Carboxybutyl)-N-[2-[5-(2-phenylethyl)thiophen-2-ylmethoxy]-2-phenylethyl]amino]methyl}benzoic acid] | 114 | 130 | 2.61 |
| O=C(O)CCCCN(Cc1ccc(C(=O)O)cc1)CC(OCc1ccc(CCc2ccccc2)cc1)c1ccsc1 (stereo not drawn) [Example 26, 4-{[N-(4-Carboxybutyl)-N-[2-[4-(2-phenylethyl)benzyloxy]-2-(3-thienyl)ethyl]amino]methyl}benzoic acid] | 110 | 92.6 | 7.72 |
| Cc1cccc(C(CN(CCCCC(=O)O)Cc2ccc(C(=O)O)cc2)OCc2ccc(CCc3ccccc3)cc2)c1 (stereo not drawn) [Example 23, 4-{[N-(4-Carboxybutyl)-N-[2-(3-methylphenyl)-2-[4-(2-phenylethyl)benzyloxy]ethyl]amino]methyl}benzoic acid] | 113 | 132 | 6.88 |
| O=C(O)CCCCN(Cc1ccc(C(=O)O)cc1)CC(OCc1ccc(CCc2ccccc2)cc1)c1cccs1 (stereo not drawn) [Example 19] | 122 | 114 | 6.20 |
| CC(C)(CCCN(Cc1ccc(C(=O)O)cc1)CC(OCc1ccc(CCc2ccccc2)cc1)c1ccccc1)C(=O)O (stereo not drawn) [Example 16, 4-{[N-(4-Carboxy-4-methylpentyl)-N-[2-[4-(2-phenylethyl)benzyloxy]-2-phenylethyl]amino]methyl}benzoic acid] | 132 | 92.4 | 8.31 |

Continued, values first:

| Emax at 10 µM (human sGC; [1]) [%] | Emax at 10 µM (human sGC; [2]) [%] | EC50 Ratio (ODQ−/ODQ+) (rat ventral aorta) | SMILES |
| --- | --- | --- | --- |
| 114 | 98 | 2.99 | Cc1ccc(C(CN(CCCCC(=O)O)Cc2ccc(C(=O)O)c(F)c2)OCc2ccc(CCc3ccccc3)cc2)s1 (stereo not drawn) [Example 28, 4-{[N-(4-Carboxybutyl)-N-[2-[4-(2-phenylethyl)benzyloxy]-2-(5-methyl-2-thienyl)ethyl]amino]methyl}-2-fluorobenzoic acid] |
| 87.7 | 128 | 7.31 | O=C(O)CCCCN(Cc1ccc(C(=O)O)cc1)C[C@H](OCc1ccc(CCc2ccccc2)cc1)c1ccccc1 [Example 32, (−)-4-{[N-(4-Carboxybutyl)-N-[(2R)-2-[4-(2-phenylethyl)benzyloxy]-2-phenylethyl]amino]methyl}benzoic acid] |
| 110 | 98.2 | 9.66 | O=C(O)CCCCN(Cc1ccc(C(=O)O)cc1)C[C@H](OCc1ccc(CCc2ccccc2)cc1)c1cccc(Cl)c1 [Example 29, (−)-4-{[N-(4-Carboxybutyl)-N-[(2R)-2-(3-chlorophenyl)-2-[4-(2-phenylethyl)benzyloxy]ethyl]amino]methyl}benzoic acid] |
| 123 | 109 | 4.26 | O=C(O)CCCCN(Cc1ccc(C(=O)O)cc1)C[C@H](OCc1ccc(CCc2ccccc2)cc1F)c1ccccc1 [Example 45, (−)-4-{[N-(4-Carboxybutyl)-N-[(2R)-2-[2-fluoro-4-(2-phenylethyl)benzyloxy]-2-phenylethyl]amino]methyl}benzoic acid] |
| 127 | 143 | 8.40 | O=C(O)CCCCN(Cc1ccc(C(=O)O)cc1)C[C@H](OCc1ccc(Oc2ccc(Cl)cc2)cc1)c1ccccc1 [Example 42, (−)-4-{[N-(4-Carboxybutyl)-N-[(2R)-2-[4-(4-chlorophenyloxy)benzyloxy]-2-phenylethyl]amino]methyl}benzoic acid] |
